Read-outs that look alike come from different tables or passages of the source.
How the values were obtained:
[1] = system: 3D7 P. falciparum strain; test: parasite proliferation assay in infected red blood cells (SYBR Green I); assay type: cell-based, Plasmodium falciparum; conditions: 3D7 strain, read-out: EC50 3D7 strain
From the text: (§1) Compounds of the invention can be assayed to measure their capacity to inhibit proliferation of parasitemia in infected red blood cells. The proliferation is quantified by the addition of SYBR Green I (INVITROGEN)® dye which has a high affinity for double stranded DNA.
The following assay illustrates the invention without in any way limiting the scope of the invention. This parasite proliferation assay measures the increase in parasite DNA content using a DNA intercalating dye, SYBR Green®.
3D7 P. falciparum strain is grown in complete culturing media until parasitemia reaches 3% to 8% with O+ human erythrocytes. 20 μl of screening media is dispensed into 384 well assay plates. […] 10 μl of lysis buffer (saponin, triton-X, EDTA) containing a 10× solution of SYBR Green I® in RPMI media is dispensed into the plates. The plates are lidded and kept at room temperature overnight for the lysis of the infected red blood cells.

[2] = system: W2 strain; test: parasite proliferation assay in infected red blood cells (SYBR Green I), W2 strain; assay type: cell-based
From the text: as §1

[3] = Plasmodium falciparum, 3D7, Erythrocyte
[4] = Plasmodium falciparum, Erythrocyte

Row | SMILES | EC50 [1, 3] | EC50 [2, 4] | EC50 ([2]; Erythrocyte) | EC50 [1] | EC50 [2]
1 | CC1(C)c2nc(-c3ccc(F)cc3)c(Nc3ccc(F)cc3)n2CCN1C(=O)CNC(=O)CCNC(=O)CCc1ccccc1 [Compound 728] | 5400 nM | 1480 nM |  |  | 
2 | Cc1ccc(Nc2c(-c3cccc(C)c3)nc3n2CCNC3)cc1 [Example 266, 2-m-tolyl-N-p-tolyl-5,6,7,8-tetrahydroimidazo[1,2-a]pyrazin-3-amine] | 1170 nM |  | 1310 nM |  | 
3 | CCC(=O)Nc1ccc(C[C@H](N)C(=O)N2CCn3c(nc(-c4ccc(F)cc4)c3Nc3ccc(C)cc3)C2)cc1 [Compound 187] | 6680 nM |  | 3550 nM |  | 
4 | Cc1ccc(-c2c(-c3ccc(Cl)cc3)nc3n2CCN(C(=O)C(C)(C)N)C3)cc1 [Compound 47] | 6980 nM |  | 6180 nM |  | 
5 | Cc1ccc(Nc2c(-c3ccc(F)cc3)nc3n2CCN(C(=O)C2(N)CCCC2)C3)cc1 [Compound 140] | 90 nM |  | 128 nM |  | 
6 | O=C(Cc1ccncc1)N1CCn2c(nc(-c3ccc(F)cc3)c2Nc2ccc(Cl)c(F)c2)C1 [Compound 302] | 170 nM |  | 149 nM |  | 
7 | CC1CCCCC1Nc1c(-c2ccc(F)cc2)nc2n1CCN(C(=O)CN)C2(C)C (stereo not shown) [Compound 664] | 3690 nM | 4080 nM |  |  | 
8 | CN1Cc2nc(-c3ccc(F)cc3)c(Nc3ccc(Cl)cc3)n2C(C)(C)C1 [Compound 608] | 6910 nM | 5560 nM |  |  | 
9 | CC1(C)c2nc(-c3ccc(F)cc3)c([S+]([O-])c3ccc(F)c(F)c3)n2CCN1C(=O)CN (stereo not shown) [Compound 723] | 89 nM | 68 nM |  |  | 
10 | Cc1ccc(Nc2c(-c3ccc(F)cc3)nc3n2CCN(C(=O)[C@H]2CCN2)C3)cc1 [Compound 89] | 50 nM |  | 73 nM |  | 
11 | Cc1ccc(Nc2c(-c3ccc(F)cc3)nc3n2CCN(C(=O)[C@@H](N)CS(C)(=O)=O)C3)cc1 [Compound 288] | 890 nM |  | 1390 nM |  | 
12 | CN1Cc2nc(-c3ccc(F)cc3)c(Nc3ccc(Cl)c(F)c3)n2C(C)(C)C1=O [Compound 615] | 6410 nM | 5610 nM |  |  | 
13 | Cc1cc(Nc2c(-c3ccc(F)cc3)nc3n2C(C)(C)C(=O)NC3)ccc1Cl [Compound 619] | 570 nM | 713 nM |  |  | 
14 | CC1(C)c2nc(-c3ccc(F)cc3)c(Nc3ccc(C#N)c(C(F)(F)F)c3)n2CCN1C(=O)CN [Compound 655] | 17 nM | 20 nM |  |  | 
15 | N[C@@H](Cc1ccccc1)C(=O)N1CCn2c(nc(-c3ccc(F)cc3)c2Nc2ccc(Cl)c(F)c2)C1 [Compound 324] | 30 nM |  | 30 nM |  | 
16 | Cc1ccc(Nc2c(-c3ccc(F)cc3)nc3n2CCN(C(=O)C2CCOCC2)C3)cc1 [Compound 209] | 11600 nM |  | 4360 nM |  | 
17 | Cc1ccc(Nc2c(-c3ccc(F)cc3)nc3n2CCN(C(=O)C2CCNC2)C3)cc1 (stereo not shown) [Compound 96] |  |  |  | 580 nM | 321 nM
18 | Cc1ccc(Nc2c(-c3ccc(F)cc3)nc3n2CCN(C(=O)[C@@H](N)CO)C3)cc1 [Compound 163] | 20 nM |  | 26 nM |  | 
19 | CC1(C)c2nc(-c3ccc(F)cc3)c(Nc3ccc(OC(F)(F)F)cc3)n2CCN1C(=O)CN [Compound 649] | 24 nM | 18 nM |  |  | 
20 | COc1ccccc1-c1nc2n(c1Nc1ccc(C)cc1)CCN(C(=O)CN)C2 [Compound 381] | 1970 nM |  | 1800 nM |  | 

Row | SMILES | EC50 [1, 3] | EC50 [2, 4] | EC50 ([2]; Erythrocyte) | EC50 [1] | EC50 [2]
21 | CC(C)(C)OC(=O)N[C@@H](CC(=O)OCc1ccccc1)C(=O)N1CCn2c(nc(-c3cccc(F)c3)c2Nc2ccc(Cl)c(F)c2)C1 [Compound 236] | 5250 nM |  | 2060 nM |  | 
22 | CN[C@H](C(=O)N1CCn2c(nc(-c3ccc(F)cc3)c2Nc2ccc(C)cc2)C1)C(C)C [Compound 376] | 60 nM |  | 79 nM |  | 
23 | Cc1ccc(Nc2c(-c3ccc(F)cc3)nc3n2CCN(C(=O)C2CCOC2)C3)cc1 (stereo not shown) [Compound 212] | 1950 nM |  | 1980 nM |  | 
24 | CC1(C)NC(=O)Cn2c1nc(-c1cccc(F)c1)c2Nc1ccc(Cl)c(F)c1 [Compound 605] | 40 nM | 57 nM |  |  | 
25 | CC(C)(C)OC(=O)N[C@@H](CC(=O)OCc1ccccc1)C(=O)N1CCn2c(nc(-c3cccc(F)c3)c2Nc2ccc(F)cc2)C1 [Compound 237] | 7190 nM |  | 5720 nM |  | 
26 | Cc1ccc(Nc2c(-c3ccc(F)cc3)nc3n2CCN(C(=O)C(C)(C)N)C3)cc1C [Compound 637] | 27 nM | 26 nM |  |  | 
27 | NCC(=O)N1CCn2c(nc(-c3cccc(F)c3)c2Nc2ccc(Cl)c(F)c2)C1 [Compound 228] | 10 nM |  | 8 nM |  | 
28 | Cc1ccc(Nc2c(-c3cccc(Cl)c3)nc3n2CCN(C(=O)C(C)(C)N)C3)cc1 [Compound 397] | 2450 nM |  | 1670 nM |  | 
29 | CC(C)(C)OC(=O)N[C@@H](CC(=O)O)C(=O)N1CCn2c(nc(-c3cccc(F)c3)c2Nc2ccc(F)cc2)C1 [Compound 241] | 5270 nM |  | 2360 nM |  | 
30 | Cc1cc(Nc2c(-c3cccc(F)c3)nc3n2C(C)(C)CN(C(=O)CN)C3)ccc1Cl [Compound 626] | 20 nM | 17 nM |  |  | 
31 | Cc1ccc(Nc2c(-c3cccnc3)nc3n2CCCC3)cc1 [Compound 737] | 7850 nM | 4090 nM |  |  | 
32 | Cc1ccc(Nc2c(-c3ccc(F)cc3)nc3n2CCN(C(=O)C(Oc2ccccc2C)C(C)C)C3)cc1 (stereo not shown) [Compound 208] | 5870 nM |  | 1060 nM |  | 
33 | Cc1ccc(Nc2c(-c3ccc(F)cc3)nc3n2CCN(C(=O)Cc2ccncn2)C3)cc1 [Compound 206] | 1200 nM |  | 1170 nM |  | 
34 | O=C(Cc1n[nH]c2ccccc12)N1CCn2c(nc(-c3ccc(F)cc3)c2Nc2ccc(Cl)c(F)c2)C1 [Compound 306] | 420 nM |  | 334 nM |  | 
35 | Cc1cc(Nc2c(-c3cccc(F)c3)nc3n2CC(=O)N(CCCO)C3(C)C)ccc1F [Compound 690] | 866 nM | 760 nM |  |  | 
36 | CC1(C)c2nc(-c3ccc(F)cc3)c(NC3CCCCCC3)n2CCN1C(=O)CN [Compound 665] | 102 nM | 69 nM |  |  | 
37 | Cc1ccc(Nc2c(-c3ccc(F)cc3)nc3n2CC(=O)NC3)cc1 [Compound 300] | 1110 nM |  | 1170 nM |  | 
38 | C[C@H](OCc1ccccc1)[C@H](N)C(=O)N1CCn2c(nc(-c3ccc(F)cc3)c2Nc2ccc(Cl)c(F)c2)C1 [Compound 312] | 1640 nM |  | 897 nM |  | 
39 | CCCNC(=O)CC[C@H](N)C(=O)N1CCn2c(nc(-c3ccc(F)cc3)c2Nc2ccc(C)cc2)C1 [Compound 188] | 790 nM |  | 1100 nM |  | 
40 | CC1(C)c2nc(-c3ccc(F)cc3)cn2CCN1C(=O)C(N)CC1CCCCC1 (stereo not shown) [Compound 703] | 8570 nM | 8290 nM |  |  | 

Row | SMILES | EC50 [1, 3] | EC50 [2, 4] | EC50 ([2]; Erythrocyte) | EC50 [1] | EC50 [2]
41 | Cc1ccc(Nc2c(-c3ccc(F)cc3)nc3n2CCN(C(=O)[C@@H](O)C(C)C)C3)cc1 [Compound 204] | 10 nM |  | 10 nM |  | 
42 | CCCNC(=O)C[C@H](NC(=O)OC(C)(C)C)C(=O)N1CCn2c(nc(-c3cccc(F)c3)c2Nc2ccc(F)cc2)C1 [Compound 248] | 7010 nM |  | 4560 nM |  | 
43 | CC1(C)c2nc(-c3ccc(F)cc3)c(Nc3cccc(OC(F)(F)F)c3)n2CCN1C(=O)CN [Compound 650] | 12 nM | 9 nM |  |  | 
44 | Cc1ccc(Nc2c(-c3ccc(F)cc3)nc3n2CCN(C(=O)[C@@H](N)Cc2ccc(N)cc2)C3)cc1 [Compound 157] | 100 nM |  | 97 nM |  | 
45 | CC1(C)c2nc(-c3ccc(F)cc3)c([S+]([O-])c3cccc(F)c3)n2CCN1C(=O)CN (stereo not shown) [Compound 719] | 481 nM | 361 nM |  |  | 
46 | Fc1cccc(-c2nc3n(c2Nc2ccc(Cl)c(F)c2)CCNC3)c1 [Compound 217] | 130 nM |  | 106 nM |  | 
47 | Cc1ccc(Nc2c(-c3ccc(F)cc3)nc3n2CCN(C(=O)[C@H](Cc2ccccc2)N(C)C)C3)cc1 [Compound 177] | 430 nM |  | 430 nM |  | 
48 | Cc1cc(C)cc(Nc2c(-c3ccccc3)nc3n2CCN(C(=O)CN)C3)c1 [Compound 2] | 3480 nM |  | 3350 nM |  | 
49 | CC(C)(N)C(=O)N1CCn2c(nc(-c3ccc(F)cc3)c2Nc2ccc(OC(F)(F)F)cc2)C1 [Compound 643] | 2800 nM | 2170 nM |  |  | 
50 | CC(C)(O)CC(=O)N1CCn2c(nc(-c3cccc(F)c3)c2Nc2ccc(F)cc2)C1 [Compound 235] | 540 nM |  | 496 nM |  | 
51 | Cc1ccc(Nc2c(-c3ccc(F)cc3)nc3n2CCN(C(=O)C2(O)CCCCC2)C3)cc1 [Compound 117] | 1260 nM |  | 1190 nM |  | 
52 | Cc1ccc(Nc2c(-c3ccc(F)c(F)c3)nc3n2CCNC3)cc1 [Compound 278] | 210 nM |  | 269 nM |  | 
53 | Cc1ccc(Nc2c(-c3ccc(F)c(F)c3)nc3n2CCN(C(=O)[C@@H](N)C(C)C)C3)cc1 [Compound 396] | 30 nM |  | 22 nM |  | 
54 | Cc1ccc(Nc2c(-c3ccc(F)cc3)nc3n2CCN(C(=O)C[C@@H](N)Cc2ccc(Br)cc2)C3)cc1 [Compound 171] | 170 nM |  | 214 nM |  | 
55 | COCCN[C@@H](Cc1ccccc1)C(=O)N1CCn2c(nc(-c3ccc(F)cc3)c2Nc2ccc(Cl)c(F)c2)C1 [Compound 282] | 120 nM |  | 117 nM |  | 
56 | CCC(C)CNc1c(-c2ccc(F)cc2)nc2n1CCN(C(=O)CN)C2(C)C (stereo not shown) [Compound 674] | 6280 nM | 6310 nM |  |  | 
57 | Cc1cc(Nc2c(-c3ccc(F)cc3)nc3n2CCN(C(=O)C(C)(C)N)C3)ccc1F [Compound 628] | 33 nM | 40 nM |  |  | 
58 | Cc1ccc(Nc2c(-c3cccc(Cl)c3)nc3n2CCN(C(=O)CN)C3)cc1 [Compound 383] | 50 nM |  | 32 nM |  | 
59 | Cc1ccc(Nc2c(-c3ccc(F)c(F)c3)nc3n2CCN(C(=O)[C@H](O)C(C)C)C3)cc1 [Compound 391] | 10 nM |  | 7 nM |  | 
